Columns and labels:
Format in all cases: cell-based
Microsporum canis = assay: Antifungal activity in vitro, resazurin growth inhibition: Microsporum canis (B68128)
Method in brief: (§1)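 Dermatophytes incubated at 27° C. for one week or more with compound, max 64 μM, in RPMI-1640/MOPS pH 7.0±0.1, 10^3 cfu/well. Viability by resazurin-to-resorufin fluorescence, 550/590 nm.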

[1] = test system: Trichophyton mentagrophytes; assay: Antifungal activity in vitro, resazurin growth inhibition: Trichophyton mentagrophytes (B70554)
Method in brief: as §1

Trichophyton rubrum = assay: Antifungal activity in vitro, resazurin growth inhibition: Trichophyton rubrum (B68183)
Method in brief: as §1

Sporothrix schenkii = assay: Antifungal activity in vitro, resazurin growth inhibition: Sporothrix schenkii (B62482)
Method in brief: (§2)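 Broth microdilution: RPMI-1640/L-Gln/2% glucose, MOPS pH 7.0±0.1; 10^3 cfu/well; top concentration 64 μM, 2- or 4-fold steps. Dermatophytes at 27° C., one week or more. Resazurin 0.005% (w/v) added, fluorescence 550/590 nm.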

Aspergillus fumigatus = assay: Antifungal activity in vitro, resazurin growth inhibition: Aspergillus fumigatus (B42928)
Method in brief: as §2

Candida parapsilosis = assay: Antifungal activity in vitro, resazurin growth inhibition: Candida parapsilosis (B66126)
Method in brief: as §2

Cryptococcus neoformans = assay: Antifungal activity in vitro, resazurin growth inhibition: Cryptococcus neoformans (B66663)
Method in brief: as §2

SMILES	Inf. B: Microsporum canis B68128, pIC50 (Microsporum canis)	Inf. G: Trichophyton mentagrophytes B70554, pIC50 [1]	Inf. C: Trichophyton rubrum B68183, pIC50 (Trichophyton rubrum)	Inf. A: Sporothrix schenkii B62482, pIC50 (Sporothrix schenkii)	Inf. E: Aspergillus fumigatus B42928, pIC50 (Aspergillus fumigatus)	Inf. D: Candida parapsilosis B66126, pIC50 (Candida parapsilosis)	Inf. F: Cryptococcus neoformans B66663, pIC50 (Cryptococcus neoformans)
COc1cccc2cc(C3=NCc4ccc(Cl)cc4-n4cccc43)oc12 [Compound 142]	<4.19	<4.19	5.64	<4.19	<4.19	<4.19	<4.19
COc1cccc2cc(C3=NCc4cccc(Cl)c4-n4cccc43)oc12 [Compound 143]	<4.19	<4.19	6.11	5.49	<4.19	<4.19	5.20
COc1cccc2cc(C3=NCc4c(Cl)cc(Cl)cc4-n4cccc43)oc12 [Compound 145]	4.81	<4.19	5.11	<4.19	<4.19	<4.19	<4.19
COc1ccc2oc(C3=NCc4ccc(Cl)cc4-n4cccc43)cc2c1 [Compound 147]	5.66	<4.19	5.35	<4.19	<4.19	<4.19	<4.19
COc1ccc2oc(C3=NCc4c(Cl)cc(Cl)cc4-n4cccc43)cc2c1 [Compound 148]	5.82	4.19	5.04	<4.19	<4.19	<4.19	<4.19
Clc1ccc(Cl)c2c1CN=C(c1ccc3ccoc3c1)c1cccn1-2 [Compound 151]	<4.19	<4.19	4.95	<4.19	<4.19	<4.19	<4.19
Fc1cccc2c1CN=C(c1ccc3occ(Cl)c3c1)c1cccn1-2 [Compound 153]	<4.19	<4.19	<4.19	<4.19	<4.19	5.00	5.16
Fc1cc(F)c2c(c1)-n1cccc1C(c1ccc3occ(Cl)c3c1)=NC2 [Compound 154]	<4.19	<4.19	<4.19	<4.19	<4.19	<4.19	<4.19
Clc1cc2cc(C3=NCc4c(Cl)cccc4-n4cccc43)ccc2o1 [Compound 155]	6.82	6.82	7.15	5.66	5.88	4.94	5.81
Clc1cccc2c1CN=C(c1ccc3c(Cl)coc3c1)c1cccn1-2 [Compound 156]	<4.19	4.49	<4.19	<4.19	4.48	<4.19	4.51

— patent US9493468B2, “Antifungal 5,6-dihydro-4H-pyrrolo[1,2-a][1,4]benzo-diazepines and 6H-pyrrolo[1,2-a][1,4]benzodiazepines substituted with heterocyclic derivatives” (Janssen Pharmaceutica NV, priority 2011, dated 2016)
